Measurements from PMC1794076, “Bioinorganic Chemistry in Thyroid Gland: Effect of Antithyroid Drugs on Peroxidase-Catalyzed Oxidation and Iodination Reactions” (Bioinorganic Chemistry and Applications, 2006).
Like-named read-outs stand apart in the source and are kept apart here.

Legend:
lactoperoxidase (LPO) [1] = test system: lactoperoxidase (LPO); design: method as in PMID 16248663; conditions: cited from earlier work
lactoperoxidase (LPO) [2] = target: lactoperoxidase (LPO); design: method as in PMID 16855736; conditions: cited from earlier work
[3] = design: method as in earlier work; conditions: cited from earlier work
[4] = Glutathione peroxidase (GPx)-like reduction of H2O2 in the presence of thiols (GSH); format: biochemical; conditions: catalytic reduction of H2O2 with thiols such as GSH
Text: Doerge and others have shown that mammalian peroxidases including LPO may activate the antithyroid drugs through S-oxygenation to produce the corresponding sulfoxides or sulfinic acids. They have also shown that the suicide inactivation of LPO and TPO by MMI proceeds through the S-oxygenation of the thione moiety to form a reactive sulfinic acid, which binds covalently to the prosthetic heme and irreversibly blocks enzyme activity. Given the higher reactivity of selenium compounds as compared with the sulfur derivatives toward oxidation, it is possible that the facile oxidation of the selenium compounds may lead to an efficient inhibition of LPO activity. […] The LPO activity was measured several times by increasing the time for the reaction of the test compounds with H2O2. Remarkably, MSeI (2) inhibited the enzyme within few seconds even at lower concentrations, which can be ascribed to the facile oxidation of the reactive selenolate group in 2 (MSeI) by H2O2 or by the oxidized enzyme. […] The initial rates (v0) derived from various concentrations of H2O2 were plotted against the concentration of H2O2. […] The reduction of H2O2 by 2 may become more efficient in the presence of suitable thiols such as GSH because this process may constitute a redox cycle involving a catalytic reduction of H2O2 (glutathione peroxidase (GPx) activity). […]

[5] = design: method as in PMID 14995183, PMID 16248663; conditions: oxidizes in air to the corresponding diselenide; cited from earlier work

## Cn1cc[nH]c1=S [MMI, methimazole]
Lactoperoxidase (LPO) [1]; 10 μM compound, 230 μM H2O2
  Recovery of LPO activity at lower compound and higher H2O2 concentration: could not be recovered
Lactoperoxidase (LPO) [1]; 40 μM compound, ABTS oxidation, Figure 3
  LPO activity in the presence of compound: completely inhibited
Lactoperoxidase (LPO) [1]; 40 μM compound, initial rates vs H2O2 concentration, LPO 6.5 nM, Figure 3
  Recovery of LPO activity by increasing H2O2 concentration: could not be recovered
Lactoperoxidase (LPO) [1]; LPO-catalyzed oxidation of ABTS with H2O2, concentration causing 50% inhibition, at least three independent experiments
  IC50: 7 ± 1.1 µM
Lactoperoxidase (LPO) [2]; HPLC assay, KI, L-tyrosine, H2O2, LPO, fixed H2O2 concentration, read-out: IC50, inhibition of LPO-catalyzed iodination of L-tyrosine
  IC50: 5.2 µM
[3]
  hydrogen-bond (hard) basicity pk HB value: 2.11

## Cn1cc[nH]c1=[Se] [MSeI]
[4]
  GPx activity (in words): high
[5]
  Stability of the zwitterionic form in air: unstable

## CCCc1cc(=O)[nH]c(=S)[nH]1 [PTU, 6-n-propyl-2-thiouracil]
[3]
  hydrogen-bond (hard) basicity pk HB value: ~1.32

## Cn1ccnc1[Se][Se]c1nccn1C [compound 8]
Lactoperoxidase (LPO) [1]; identical experimental conditions as for the IC50 determination
  Inhibition of LPO-catalyzed oxidation (in words): does not show any noticeable inhibition
Lactoperoxidase (LPO) [2]; identical conditions as the IC50 determination
  Inhibition of LPO-catalyzed iodination (in words): did not show any noticeable inhibition
